Patent US20240209022A1, “NOVEL PEPTIDE HAVING ANTI-INFLAMMATORY AND TISSUE REGENERATIVE ACTIONS” (KOREA RESEARCH INSTITUTE OF BIOSCIENCE AND BIOTECHNOLOGY, priority 2020, published 2024)

How the values were obtained:
[1] = system: LPS-induced cognitive and memory disorder mice; assay: Novel object recognition test in LPS-induced cognitive/memory disorder model; format: in vivo, C57BL/6J mice; settings: oral; LPS 250 μg/kg/day for 7 days; vs control group
Method: LPS was intraperitoneally injected to C57BL/6J male mice at 250 μg/kg/day daily for 7 days to induce cognitive and memory disorders. Amuc_1409, a protein derived from Akkermansia muciniphila, was orally administered to the mice by 5 μg daily from one week before LPS administration until the cognitive and memory test was performed. PEP002, PEP003, PEP004, or PEP005 was dissolved in PBS buffer at a concentration of 2.4 μM and then orally administered to the mice by 150 μL per animal daily at the same time once a day from 3 days before LPS administration until the cognitive and memory test was performed. To the control group (vehicle), PBS was orally administered in the same volume.
In order to test the effect of improving cognitive function in mice with cognitive and memory disorder administered with Amuc_1409 or PEP002, PEP003, PEP004, or PEP005, a novel object recognition test was performed. When the object seen 24 hours ago and a novel object were provided, the exploration time and the number of explorations for the novel object were measured to test cognition and memory.

[2] = system: C2C12 myoblasts; assay: Dexamethasone-induced atrophy gene expression in C2C12 myoblasts; format: cell-based; settings: 64 nM peptide together with dexamethasone (25 μM); RT-qPCR
Method: Myoblast C2C12 (myoblast) was dispensed into a 6 well plate, and then cultured in a DMEM medium containing 10% FBS and 1% antibiotics at 37° C. in a 10% CO2 incubator. Thereafter, in order to induce differentiation, the medium was replaced with a differentiation medium containing 2% horse serum, the C2C12 cells were treated with PEP004 and PEP005 at a concentration of 64 nM during the time for induction of differentiation, and formation of myotubes was observed.
After differentiation of myoblasts, the cells were treated with dexamethasone (25 μM), which causes muscle atrophy, and PEP004 and PEP005 simultaneously, and then RNA was extracted from the cells using Trizol. Reverse transcriptase was added to the obtained RNA and reacted to synthesize cDNA, and SYBR Green and primers were added to perform quantitative real-time PCR (RT-qPCR). Expression levels of Atrogin-1 and MuRF1, which are factors involved in muscle atrophy, were measured to determine whether atrophy of differentiated myoblasts was inhibited.

[3] = system: naturally aged mice; assay: NORT and Y-maze alteration test in naturally aged mice; format: in vivo, C57BL6/J mice; settings: oral; for spontaneous alteration, Y-maze alteration test: 0.2 μg daily 5 days a week for 8 weeks, vs PBS buffer
Method: An experiment was conducted to verify the efficacy of the peptides of the present invention in an animal model of cognitive/memory disorder due to natural aging.
Amuc_1409 was orally administered to 16.5-month-old male mice by 4.5 μg daily 5 days a week for 8 weeks, and PEP002, PEP003, PEP004, or PEP005 was dissolved in PBS buffer at a concentration of 2.4 μM and then orally administered to 16-month-old male mice by 150 μL per animal at the same time once a day for 3 weeks. To the control group (vehicle), PBS was orally administered in the same volume.
In the case of the groups administered with the novel tetrapeptides and tripeptides (PEP006 to PEP013), each peptide was orally administered to 19-month-old female C57BL6/J mice by 0.2 μg daily 5 days a week for 8 weeks. At this time, the peptide was dissolved in PBS buffer and orally administered to the mice at 0.2 μg/150 μL per animal at the same time once a day. To the vehicle group, PBS was orally administered in the same volume. At this time, 4-month-old female C57BL6/J mice were used as a young control group.
A novel object recognition test (NORT) was performed to test the effect of improving cognitive function in naturally aged mice. When the object seen 24 hours ago and a novel object were provided, the exploration time and the number of explorations for the novel object were measured to test cognition and memory. In addition, a Y-maze alteration test was performed to confirm the effect of enhancing spatial perception and memory. In the Y-maze alteration test, spontaneous alteration (%) was evaluated by measuring the order of entering each Y-shaped maze (A, B and C). […] The spontaneous alteration was calculated and expressed as the total number of alterations/(total number of entries−2)×100.

[4] = system: APP/PS1 Alzheimer's disease mice; assay: Novel object recognition test in APP/PS1 Alzheimer's disease mice; format: in vivo; settings: oral for 8 weeks; vs vehicle
Method: To 5-month-old APP/PS1 Alzheimer's disease male mice with amyloid deposition and cognitive and memory disorder in the brain, Amuc_1409 was orally administered to the mice by 5 μg daily 5 days a week for 8 weeks. PEP001 was dissolved in PBS buffer at a concentration of 2.4 μM, and then orally administered to the mice by 150 μL per animal 5 days a week for 8 weeks. To the control group (vehicle), PBS was orally administered in the same volume. In addition, normal mice (Non-Tg) not administered with the novel protein fragments were used as a control group.
In order to test the effect of improving cognitive function in APP/PS1 Alzheimer's disease mice administered with Amuc_1409 and PEP001, a novel object recognition test was performed. When the object seen 24 hours ago and a novel object were provided, the exploration time and the number of explorations for the novel object were measured to test cognition and memory.

[5] = system: BTBR mice; assay: Social (sniffing) behavior in BTBR developmental disability model; format: in vivo; settings: oral, after 4 weeks of administration; vs vehicle
Method: In order to verify the efficacy of the peptides of the present invention on developmental disability, BTBR mice (BTBR T^+ltpr3^tf/J (BTBR)), a developmental disability model, were used as an experimental animal.
To 3-week-old male BTBR mice, Amuc_1409 was orally administered by 5 μg daily 5 days a week, and PBS (phosphate-buffered saline) was administered to the control group. PEP001, PEP002, PEP003, PEP004, and PEP005 were each dissolved in PBS buffer at a concentration of 2.4 μM and orally administered to the mice by 150 μL per animal at the same time once a day 5 days a week, and novel tetrapeptides PEP006, PEP007, PEP008, PEP009, and PEP010 and novel tripeptides PEP011 and PEP013 were each dissolved in PBS buffer at 0.2 μg/150 μL and orally administered to the mice by 150 μL per animal at the same time once a day 5 days a week. After 4 weeks of administration, behavioral evaluation was performed by observing the social behavior of the mice. The mice were allowed to freely consume sterilized feed and water in a breeding facility in a specific pathogen free environment where the temperature was maintained at 22° C. to 24° C., and were bred while maintaining a 12-hour day/night cycle.

Molecule: AVSSI (PEP002)
- memory and cognitive function, novel object recognition test [1]: improved

Molecule: GAY [PEP005]
- memory and cognitive function, novel object recognition test [1]: improved
- expression of Atrogin-1 [2]: significantly decreased
- expression of MuRF1 [2]: significantly decreased

Molecule: VGAY (PEP010)
- spontaneous alteration, Y-maze alteration test [3]: significantly improved

Molecule: KGAY (PEP003)
- memory and cognitive function, novel object recognition test [1]: improved

Molecule: IGAY (PEP008)
- spontaneous alteration, Y-maze alteration test [3]: significantly improved

Molecule: AVSSIKGAY (PEP001)
- cognition and memory, novel object recognition test [4]: significantly improved

Molecule: AVS (AVSSIKGAY) [PEP004]
- memory and cognitive function, novel object recognition test [1]: improved
- expression of Atrogin-1 [2]: significantly decreased
- expression of MuRF1 [2]: significantly decreased

B1: Amuc_1409: SEQ ID NO: 15, functional fragment obtained by eliminating the leader sequence from SEQ ID NO: 14; protein derived from Akkermansia muciniphila (protein)
chain: IPESSVPAAAVSSIKGAYPNAGPIEWDSEMHGMERIYEAEFRINGFQFDVKIAPDGKIVRIKEEIAASSLPEAVRASVLKRYPGCRIKEAEKITEGELVRYKVEVADSRDDYDVLIAPDGNILHVDR
modifications: Amuc_1409_fragment
notes: protein derived from Akkermansia muciniphila
- cognition and memory, novel object recognition test [4]: significantly improved
- memory and cognitive function, novel object recognition test [1]: improved
- cognition and memory, novel object recognition test ([3]; naturally aged mice, vs control group): significantly improved or tended to be improved
- social behavior (sniffing time and frequency) [5]: significantly increased or tended to increase
